Measured values from patent publication US10588950B2, “Compositions and methods for counteracting Factor Xa inhibition” (Pfizer Inc., priority 2013, dated 2020).

Legend:
[1] = tested on: whole blood clot formation; experiment: Whole blood rotational thromboelastometry (ROTEM); assay type: cell-based, human
Description: Whole blood thromboelastometry was used to assess the ability of the FXa^I16L variant to reverse the effects of the direct FXa inhibitors in whole blood. In this system, blood is drawn from healthy volunteers. The first 2 mL of blood were discarded and the subsequent 5 mL of blood was collected into a vacutainer (BID, Franklin Lakes, N.J.). Corn trypsin inhibitor and sodium citrate were in the collection tube, prior to collection of the blood sample, to achieve a final concentration of 0.105 M citrate and 25 μg/mL corn trypsin inhibitor (Haematologic Technologies, Burlington, Vt.) in the blood. Two sets of reactions were analyzed for each donor. The initial reaction initiated 5 minutes post blood collection. The second reaction initiated 1 hour post initiation of first reaction (1 hour 5 minutes after collection).
Blood was analyzed using Thromboelastometry ROTEM® delta (Tem International GmbH, Munich, Germany). For the reaction: (1) 6 μL of vehicle, protein, and/or inhibitor were added to the empty cup, (2) 20 μl of 0.2 M CaCl2 (final concentration 11.6 mM), and (3) 20 μl of Innovin (final concentration in reaction 1:10,000; source of tissue factor) were added to the cup. Whole blood collected as described above was added to the reaction (300 up and recordings were allowed to proceed for approximately 30-60 minutes. The data collected was analyzed using the manufacture's software. (Rotem Gamma Software Version 1.1.1).

[2] = tested on: blood loss following a tail cut; conditions: mouse, in vivo, 50 mg/kg
Description: Thirty minutes later, mice were anesthetized with isoflurane and placed on a heated platform, and the body temperature of the mice was maintained at 37° C. prior to the tail cut. The tails were immersed in 50 mL pre-warmed phosphate buffered saline (PBS) at 37° C. for 2 minutes. A 3 mm tail cut was made and blood was collected into PBS for a 10 minute period. A quantitative assessment of the amount of bleeding was determined by hemoglobin content of the blood collected into PBS. Tubes were centrifuged to collect erythrocytes, resuspended in 5 mL lysis buffer (8.3 g/L NH4Cl, 1.0 g/L KHCO3, and 0.037 g/L EDTA), and the absorbance of the sample was measured at 575 nm. The absorbance values were converted to total blood loss (μL) using a standard curve.
Mice were then anesthetized with isoflurane and placed on a heated platform, and the body temperature of the mice was maintained at 37° C. prior to the tail cut. The tails were immersed in 50 mLs pre-warmed phosphate buffered saline (PBS) at 37° C. for 2 minutes. A 3 mm tail cut was made and blood was collected into PBS for a 10 minute period and the assessment of the amount of bleeding was determined by hemoglobin content as described.

[3] = tested on: thrombin generation in normal human plasma; experiment: Thrombin generation assay using calibrated automated thrombography (CAT), Example 4; assay type: biochemical
Description: Normal human plasma was obtained from George King Biomedical (Overland Park, Kans.). […] Immediately preceding reaction initiation, 10 μL of vehicle or FXa^I16L was added to plasma at final concentrations ranging from 0.03125 nM to 0.5 nM FXa^I16L, given a 120 μL total reaction volume. Reactions were initiated by addition of 20 μL FluCa buffer containing calcium chloride and fluorogenic substrate. Fluorescence of plasma reactions was read at 37° C. at 20 second intervals on a Fluoroskan Ascent fluorometer and compared to those of reference thrombin calibrator reactions to determine thrombin concentrations. The intensity of the fluorescence signal (FU) was continuously monitored at 37° C. using the CAT. Thrombin generation curves (nM thrombin vs. time) were analyzed to extract lag time, peak height, time to peak, and the area under the curve representing the endogenous thrombin potential (ETP) using the Thromboscope software (Thrombinoscope BV version).

[4] = tested on: clot formation at site of vascular injury; experiment: Laser-induced injury of mouse cremaster muscle, intravital microscopy; assay type: in vivo; conditions: 1 mg/kg rivaroxaban
Description: Using standard techniques, the cremaster muscle of mice was exposed and visualized using intravital microscopy. A vascular injury in the muscle was then induced using a laser. After injury, clot formation was visualized using different fluorescently labeled antibodies that specifically recognize fibrin and platelets. Clotting is indicated by the presence of fluorescent signal from both types of antibodies.

[5] = tested on: thrombin generation in normal human plasma; experiment: Thrombin generation assay (TGA) in normal human plasma, Example 2; assay type: biochemical; conditions: 500 nM rivaroxaban versus plasma without rivaroxaban
Description: The thrombin generation assay (TGA) was used to assess whether the zymogen-like FXa variants can reverse the effects of direct FXa inhibitors in a more physiologic environment. The TGA measures thrombin production in plasma over time following the initiation of coagulation and was performed as previously described (See Bunce et al., (2011) Blood 117, 290-298, incorporated by reference herein in their entirety). […] Thrombin generation was initiated with 2.0 pM tissue factor/4 uM phospholipid as well as CaCl2 and a thrombin fluorogenic substrate.

FXa^I16L = FXa^I16L (Homo sapiens, UniProt P00742, I235L); experiment: Inhibition of free FXa^I16L peptidyl substrate (SpecXa) hydrolysis by rivaroxaban; assay type: biochemical; conditions: free enzyme
FXa^I16L, sequence (P00742 41-179): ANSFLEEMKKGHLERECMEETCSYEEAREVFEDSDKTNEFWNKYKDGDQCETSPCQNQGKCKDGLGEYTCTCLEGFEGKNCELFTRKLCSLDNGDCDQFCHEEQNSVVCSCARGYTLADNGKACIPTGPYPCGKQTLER
FXa^I16L, sequence (P00742 235-488 I235L): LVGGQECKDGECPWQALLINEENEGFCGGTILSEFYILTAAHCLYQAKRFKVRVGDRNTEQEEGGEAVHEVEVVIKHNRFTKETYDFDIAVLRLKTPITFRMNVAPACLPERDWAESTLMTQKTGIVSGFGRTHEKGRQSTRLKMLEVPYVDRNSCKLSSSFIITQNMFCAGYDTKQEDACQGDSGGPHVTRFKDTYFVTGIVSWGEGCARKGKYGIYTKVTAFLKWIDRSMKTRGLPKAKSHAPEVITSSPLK

[6] = tested on: clotting time of whole blood; experiment: ROTEM of whole blood from mice administered rivaroxaban and FXa^I16L in vivo; parameters: species or system C57BL/6 mice; conditions: 1 mg/kg rivaroxaban via tail vein, buffer only about 2 min
Description: Mice were then prepared to expose the jugular vein and the vena cava. Approximately 10 mill later FXa^I16L (1 or 2 mg/kg) was infused by direct injection into the jugular vein. Five minutes post injection blood was collected via the vena cava into citrate and corn trypsin inhibitor. Collected blood was then analyzed by ROTEM using dilute tissue factor (Innovin, 1:42,000 dilution).

[7] = high doses (supratherapeutic concentrations)
[8] = low doses (therapeutic concentrations)

COc1ccc(-n2nc(C(N)=O)c3c2C(=O)N(c2ccc(N4CCCCC4=O)cc2)CC3)cc1 [apixaban]
whole blood clot formation, inhibitor alone [1, 7]: almost completely eliminated | whole blood clot formation, inhibitor alone [1, 8]: partially eliminated

O=C(NC[C@H]1CN(c2ccc(N3CCOCC3=O)cc2)C(=O)O1)c1ccc(Cl)s1 [rivaroxaban]
blood loss following the tail transection [2]: increase | thrombin generation in normal human plasma ([3]; in vitro rivaroxaban treatment 5-200 nM): dose dependent inhibition | ETP ([3]; rivaroxaban alone): decrease | lag time ([3]; rivaroxaban alone): increase | peak thrombin ([3]; rivaroxaban alone): decrease | whole blood clot formation, inhibitor alone [1, 7]: almost completely eliminated | whole blood clot formation, inhibitor alone [1, 8]: partially eliminated | accumulation of platelets at the injury site [4]: delayed | signs of fibrin at the injury site [4]: eliminated | thrombin generation profile of plasma [5]: substantially reduced | reduced affinity to FXa^I16L versus wild-type FXa (FXa^I16L): ~15 fold | clot time of whole blood (ROTEM) [6]: Approximately 10 min
